Measured values from article PMC3816702, “The Three Catecholics Benserazide, Catechol and Pyrogallol are GPR35 Agonists” (Pharmaceuticals, 2013).

Assays:
GPR35 [1] = molecular target: T1, GPR35 (Homo sapiens, UniProt Q9HC97); experiment: Tango β-arrestin translocation gene reporter assay in U2OS-GPR35-bla cells; assay type: cell-based; parameters: host or cells: U2OS (Tango U2OS-GPR35-bla); settings: for Potency EC50, Tango / EC50: β-arrestin translocation, tested up to 1mM, mean ± S.D.; for Potency EC50, Tango: n = 4; for Efficacy Tango (%zaprinast): normalized to maximal response of zaprinast (100%); for EC50: n = 4, read-out: Potency EC50, Tango
Method: (§1) Tango assays were performed in engineered U2OS-GPR35-bla cell line. This cell line permits an endpoint measurement of the activity of agonists specific to the GPR35 activation-induced β-arrestin translocation. Specifically, 10000 U2OS-GPR35-bla cells per well were seeded in 384-well, black-wall, clear bottom assay plates with low fluorescence background (Corning). After overnight culture, the cells were stimulated with ligands for 5 h at 37 °C under 5% CO2, and then loaded with the cell permeable LiveBLAzer™ fluorescence resonance energy transfer (FRET) B/G substrate. After 2 h incubation the coumarin to fluorescein ratio was measured using Victor 4 plate reader (PerkinElmer, Waltham, MA, USA).
Target sequence in this assay (Q9HC97 whole entry, species assumed): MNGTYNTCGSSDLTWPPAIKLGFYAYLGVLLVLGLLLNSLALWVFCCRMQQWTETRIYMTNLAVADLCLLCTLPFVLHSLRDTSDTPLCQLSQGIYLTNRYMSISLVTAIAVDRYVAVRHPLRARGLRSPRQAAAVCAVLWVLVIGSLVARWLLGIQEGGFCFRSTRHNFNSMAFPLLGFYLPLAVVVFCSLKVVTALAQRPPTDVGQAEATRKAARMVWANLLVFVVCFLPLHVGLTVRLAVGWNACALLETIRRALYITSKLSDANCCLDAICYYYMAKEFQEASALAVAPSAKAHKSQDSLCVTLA

GPR35 [2] = molecular target: T1, GPR35; experiment: DMR agonist assay in native HT-29 cells; assay type: cell-based; parameters: label-free DMR assays in both native HT-29 and engineered U2OS-GPR35-bla cells; host or cells: HT-29; settings: for Potency EC50, DMR / EC50: mean ± S.D.; for Potency EC50, DMR: n = 4; for Efficacy DMR: maximal DMR amplitude; for EC50: n = 4, read-out: Potency EC50, DMR
Method: (§2) DMR assays were performed using an Epic® system (Corning Inc., Corning, NY, USA). This system records a ligand-induced dynamic mass redistribution (DMR) signal of live cells as a shift in resonant wavelength (in picometer, pm) of a resonant waveguide grating biosensor. The DMR signal obtained is a real-time kinetic response that provides a holistic view of ligand-receptor interaction(s) and its functional consequence in the cells. For HT-29 cells 30,000 cells per well were seeded into 384well Epic® biosensor plates (Corning) and cultured overnight. For U2OS and U2OS-GPR35-bla cells 18,000 cells per well were seeded and cultured overnight. These cells were then washed twice using a plate washer, maintained with Hank’s balanced salt solution (1 × HBSS) and further incubated inside the Epic® system for 1 h. DMR agonist profiling proceeds with a 2-min baseline, followed by compound addition and monitoring the compound-induced responses for about 1 h. […] All DMR signals were background corrected.
Target sequence in this assay (Q9HC97 whole entry): as the sequence (Q9HC97 whole entry, species assumed) above

GPR35 [3] = molecular target: T1, GPR35; experiment: ML-145 inhibition of Tango signals of agonists at a fixed dose in U2OS-GPR35-bla cells; assay type: cell-based; parameters: host or cells: U2OS (Tango U2OS-GPR35-bla); settings: label = agonist at fixed dose: 10 μM zaprinast, 10 μM YE210, 50 μM gallic acid, 10 μM pyrogallol, 32 μM benserazide, 250 μM 3-methoxycatechol
Method: as §1
Target sequence in this assay (Q9HC97 whole entry, species assumed): as above

GPR35 [4] = molecular target: T1, GPR35; experiment: DMR antagonist assay in HT-29 cells (preincubation with antagonist, then agonist at fixed dose); assay type: cell-based; parameters: label-free DMR assays in both native HT-29 and engineered U2OS-GPR35-bla cells; host or cells: HT-29; settings: 500 μM catechol; for Blockage of the agonist-induced DMR by ML-145: label = agonist at fixed dose: 64 μM propyl gallate, 200 or 100 μM syringic acid, 16 μM benserazide, 20 μM (+)-taxifolin, 100 μM fenoldopam; for Effect of antagonist on the catechol DMR: label = antagonist
Method: as §2
Target sequence in this assay (Q9HC97 whole entry): as the sequence (Q9HC97 whole entry, species assumed) above

parental U2OS cells = experiment: DMR agonist assay in parental U2OS cells; assay type: cell-based; settings: parental U2OS cells without GPR35
Method: as §2

GPR35 [5] = molecular target: T1, GPR35; experiment: DMR agonist assay in engineered U2OS-GPR35-bla cells; assay type: cell-based; parameters: host or cells: U2OS (Tango U2OS-GPR35-bla); settings: DMR amplitude at 8min poststimulation; n = 4
Method: as §2
Target sequence in this assay (Q9HC97 whole entry, species assumed): as above

GPR35 [6] = molecular target: T1, GPR35; settings: previously found; cited from earlier work
Target sequence in this assay (Q9HC97 whole entry): as the sequence (Q9HC97 whole entry, species assumed) above

Row | Compound | Potency EC50, Tango (GPR35 [1]) | Efficacy Tango (%zaprinast) (GPR35 [1]) | Blockage of the agonist Tango signal by ML-145 (GPR35 [3]) | Efficacy DMR (GPR35 [2]) | EC50 (GPR35 [2]) | Blockage of the agonist-induced DMR by ML-145 (GPR35 [4]) | other results
1 | COc1ccc(C=CC(=O)O)cc1OC [3,4-Dimethoxycinnamic acid, 3,4-dimethoxycinnamic acid] | inactive | – | – | – | – | – | Potency EC50, DMR (GPR35 [2]): inactive
2 | COc1cccc(O)c1O [3-Methoxycatechol, 3-methoxycatechol] | – | 41 ± 3 %zaprinast | dose-dependently blocked | 219 pm | 147 ± 15 µM | – | EC50 (GPR35 [1]): 80.7 ± 6.3 µM
3 | O=C1c2c(O)cc(O)cc2O[C@H](c2ccc(O)c(O)c2)[C@H]1O [(+)-Taxifolin, (+)-taxifolin] | weak | >8 %zaprinast | – | 170 pm | 6.6 ± 0.5 µM | completely blocked | –
4 | Oc1cc(O)c2c(c1)O[C@@H](c1ccc(O)c(O)c1)[C@H](O)C2 [(−)-Catechin, (−)-catechin] | inactive | – | – | – | – | – | Potency EC50, DMR (GPR35 [2]): inactive
5 | NC(CO)C(=O)NNCc1ccc(O)c(O)c1O (stereo not drawn) [Benserazide] | – | 48 ± 4 %zaprinast | dose-dependently blocked | 296 pm | 11 ± 0.9 µM | partially blocked | DMR activity in the parental U2OS cells (parental U2OS cells): inactive; EC50 (GPR35 [5]): 1 ± 0.13 µM; EC50 (GPR35 [1]): 7.5 ± 0.6 µM
6 | Oc1ccccc1O [Catechol, catechol] | inactive | 0 %zaprinast | – | 207 pm | 319 ± 27 µM | completely blocked | –
7 | Oc1ccc(C2CNCCc3c2cc(O)c(O)c3Cl)cc1 (stereo not drawn) [Fenoldopam, fenoldopam, reference compound] | inactive | 0 %zaprinast | – | 268 pm | 206 ± 19 µM | completely blocked | –
8 | O=C(O)c1cc(O)c(O)c(O)c1 [Gallic acid, gallic acid, reference compound] | – | 77 ± 5 %zaprinast | dose-dependently blocked | – | 1.16 ± 0.09 µM | – | EC50 (GPR35 [1]): 12.6 ± 1 µM
9 | CCCOC(=O)c1cc(O)c(O)c(O)c1 [Propyl gallate, propyl gallate] | weak | >8 %zaprinast | – | 210 pm | 20.2 ± 1.9 µM | completely blocked | –
10 | Oc1cccc(O)c1O [Pyrogallol, pyrogallol] | – | 113 ± 5 %zaprinast | dose-dependently blocked | 210 pm | 1.3 ± 0.1 µM | – | EC50 (GPR35 [1]): 4.5 ± 0.4 µM
11 | COc1cc(C(=O)O)cc(OC)c1O [Syringic acid, syringic acid] | weak | >10 %zaprinast | – | 151 pm | 147 ± 23 µM | completely blocked | –
12 | Cc1c(C(=O)O)sc2c(Br)csc12 [YE210] | – | – | dose-dependently blocked | – | – | – | –
13 | CC(C)NCC(O)COc1ccc(CCOCC2CC2)cc1 (stereo not drawn) [betaxolol, reference compound] | – | – | – | – | – | – | Effect of antagonist on the catechol DMR (GPR35 [4]): neither the β-adrenergic receptor antagonist betaxolol nor α2-adrenergic receptor antagonist yohimbine had any obvious effects
14 | O=C(O)/C=C/c1ccc(O)c(O)c1 [caffeic acid] | – | – | – | – | – | – | GPR35 agonist activity (DMR in HT-29), in words (GPR35 [6]): weak partial agonist
15 | COC(=O)[C@@H]1[C@H]2C[C@H]3c4[nH]c5ccccc5c4CCN3C[C@@H]2CC[C@@H]1O [yohimbine, reference compound] | – | – | – | – | – | – | Effect of antagonist on the catechol DMR (GPR35 [4]): neither the β-adrenergic receptor antagonist betaxolol nor α2-adrenergic receptor antagonist yohimbine had any obvious effects
16 | CCCOc1ccccc1-c1nc2nn[nH]c2c(=O)[nH]1 [zaprinast, Zaprinast] | – | – | dose-dependently blocked | – | – | – | DMR activity in the parental U2OS cells (parental U2OS cells): inactive
